# Measured values published in patent publication US20070032529A1, “Pyrazole compounds and their use as antidiabetes agents” (Japan Tobacco Inc., priority 2005, published 2007).
# Molecular target: T1, recombinant human liver glycogen phosphorylase (Homo sapiens, UniProt P06737)
# T1 construct: made in house; host or cells: Sf9 insect cells (crude homogenate, diluted, used as the enzyme solution)
# T1 sequence (P06737 1-847): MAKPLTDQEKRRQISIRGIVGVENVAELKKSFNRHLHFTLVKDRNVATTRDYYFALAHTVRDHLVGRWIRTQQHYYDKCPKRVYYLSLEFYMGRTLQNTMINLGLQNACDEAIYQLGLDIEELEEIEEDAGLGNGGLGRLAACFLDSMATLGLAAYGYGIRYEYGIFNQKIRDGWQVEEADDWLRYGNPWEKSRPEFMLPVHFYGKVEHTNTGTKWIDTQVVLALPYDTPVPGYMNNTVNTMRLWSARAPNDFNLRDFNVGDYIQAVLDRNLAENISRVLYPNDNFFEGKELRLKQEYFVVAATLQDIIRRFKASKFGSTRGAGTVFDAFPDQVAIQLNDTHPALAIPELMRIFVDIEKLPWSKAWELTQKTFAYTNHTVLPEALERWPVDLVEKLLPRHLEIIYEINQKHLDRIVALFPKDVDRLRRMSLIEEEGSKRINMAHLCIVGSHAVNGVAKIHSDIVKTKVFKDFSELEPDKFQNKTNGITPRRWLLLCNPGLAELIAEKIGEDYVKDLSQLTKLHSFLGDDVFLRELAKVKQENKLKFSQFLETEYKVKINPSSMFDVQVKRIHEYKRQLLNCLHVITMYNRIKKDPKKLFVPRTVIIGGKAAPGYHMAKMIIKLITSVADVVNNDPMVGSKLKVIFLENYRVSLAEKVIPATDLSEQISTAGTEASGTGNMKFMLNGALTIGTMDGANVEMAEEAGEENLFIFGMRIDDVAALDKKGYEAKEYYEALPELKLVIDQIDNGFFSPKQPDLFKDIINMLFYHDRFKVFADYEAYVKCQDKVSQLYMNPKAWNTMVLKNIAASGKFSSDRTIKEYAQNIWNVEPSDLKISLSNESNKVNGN
# Test: Measuring liver glycogen phosphorylase activity (forward reaction system, NADPH absorbance at 340 nm)
# Assay type: biochemical
# Conditions: compound concentration 100 nmol (in parentheses)
# Protocol: [Pharmacological Test] 1. Exemplary Test (1) Method for Measuring Liver Glycogen Phosphorylase Activity
# The measurement of glycogen phosphorylase activity was carried out by a method using the forward reaction system.
# The measurement of glycogen phosphorylase activity using the forward reaction system was carried out as follows. Glucose-1-phosphate prepared from glycogen by glycogen phosphorylase was converted into glucono-δ-lactone 6-phosphate through transphosphorylation and dehydrogenation using phosphoglucomutase and glucose-6-phosphate dehydrogenase (G6PDH). NADPH generated from NADP during the dehydrogenation by G6PDH was detected.
# A homogenate of the Sf9 cells which expressed exogenously recombinant human liver glycogen phosphorylase was diluted with 100 mmol/LBES buffer solution (pH 6.8, containing 2 mmol/L EDTA) and the dilution was used as the enzyme solution of human liver glycogen phosphorylase. As the substrate, a phosphate buffer (containing 16 mmol/L KH2PO4, 24 mmol/L Na2HPO4) was used. A mixture of 8 U/mL phosphoglucomutase and 60 U/mL G6PDH was prepared in BES buffer solution. Buffer solution (containing 1.4 mmol/L NADP, 30 mmol/L MgCl2, 8 μmol/L glucose-1,6-diphosphate, 8 mg/mL glycogen, 40 mmol/LBES, 0.8 mmol/L EDTA) for reaction and a glucose solution (containing 75 mmol/L glucose, 100 mmol/LBES, 2 mmol/L EDTA) were prepared individually. The test compound was dissolved in 1% DMSO solution.
# The enzymatic reaction was begun by adding 20 μL of the recombinant human liver glycogen phosphorylase solution and 20 μL of the mixture of phosphoglucomutase and G6PDH to the mixture of 20 μL of the glucose solution, 20 μL of the substrate, 100 μL of the buffer solution for reaction and 20 μL of the test compound solution. As control, 1% DMSO solution was added instead of the test compound. The mixture without the substrate was used as blank. The absorbance at 340 nm was measured immediately after the reaction started. The absorbance at 340 nm was measured again after reacting at room temperature for 75 minutes. The enzymatic activity is a value obtained by subtracting the blank variation in absorbance over 75 minutes from the variation in absorbance over 75 minutes.
# The inhibition rate (%) of the test compound was calculated by the expression “(1-enzymatic activity of test compound/enzymatic activity of control)×100.”
# A linear equation was determined from the two concentration points with the 50% inhibition rate therebetween, and the IC50 value was calculated from the concentration at the intersection of the line with the 50% inhibition rate.
# “IC50” in the tables indicates the above-described enzyme inhibitory activity with respect to liver glycogen phosphorylase, and the activity to inhibit liver glycogen phosphorylase was represented as ++ when the IC50 value (nmol/L) was less than 100 nmol/L, as + when the IC50 value was between 100 nmol/L and 300 nmol/L. When IC50 is 300 nmol/L or more, an inhibition rate (%) at a certain concentration of the compound (I) of the present invention is shown in Tables. For example, when the inhibition rate is 20% at a concentration of 300 nmol, the rate is described as 20% (300).
row,inhibition rate (%) at a certain concentration,Structure (SMILES)
1,20.8%(100),CCOC(=O)C(C)(C)c1cnc(NC(=O)c2cc(NC(=O)c3cc(F)c(F)cc3Cl)[nH]n2)c(OCC)c1 [Example 1-149]
2,13.3%(100),CCOc1cc(C(C)(C)C(=O)O)cnc1NC(=O)c1cc(NC(=O)c2cc(F)c(F)cc2Cl)[nH]n1 [Example 1-151]

# Same assay, conditions: compound concentration 100 nmol (in parentheses); read-out: inhibition rate (%) at a certain concentration
row,inhibition at 0.1 µM [%],Structure (SMILES)
1,22.9,O=C(NCCc1ccccn1)c1cc(NC(=O)c2cc(F)c(F)cc2Cl)[nH]n1 [Example 1-139]
2,30.8,O=C(NCCc1cccnc1)c1cc(NC(=O)c2cc(F)c(F)cc2Cl)[nH]n1 [Example 1-140]
3,31.4,O=C(NCCc1ccncc1)c1cc(NC(=O)c2cc(F)c(F)cc2Cl)[nH]n1 [Example 1-141]
4,5,O=C(Nc1cnccn1)c1cc(NC(=O)c2cc(F)c(F)cc2Cl)[nH]n1 [Example 1-144]
5,12.8,O=C(Nc1cccc2ncccc12)c1cc(NC(=O)c2cc(F)c(F)cc2Cl)[nH]n1 [Example 1-145]
6,11.3,O=C(Nc1cccc2cccnc12)c1cc(NC(=O)c2cc(F)c(F)cc2Cl)[nH]n1 [Example 1-146]
7,9.6,O=C(Nc1cccc2cnccc12)c1cc(NC(=O)c2cc(F)c(F)cc2Cl)[nH]n1 [Example 1-147]

# Further lines, the compound ahead of its results:
row,Structure (SMILES),inhibition at 0.1 µM [%]
1,CCOC(=O)C(C)(C)c1cnc(NC(=O)c2cc(NC(=O)c3cc(F)c(F)cc3Cl)[nH]n2)c(OCC)c1 [Example 1-148],14.1
2,CCOc1cc(C(C)(C)C(=O)O)cnc1NC(=O)c1cc(NC(=O)c2cc(F)c(F)cc2Cl)[nH]n1 [Example 1-150],13.8

# Same assay, conditions: compound concentration 300 nmol (in parentheses); read-out: inhibition rate (%) at a certain concentration
row,inhibition at 0.3 µM [%],Structure (SMILES)
1,17,O=C(Nc1cc(C(=O)N(CCCCO)Cc2ccccc2)n[nH]1)c1cc(F)c(F)cc1Cl [Example 1-86]
2,11.7,O=C(Nc1ccccc1N1CCOCC1)c1cc(NC(=O)c2cc(F)c(F)cc2Cl)[nH]n1 [Example 1-92]
3,36.5,COCCN(CCOC)C(=O)c1cc(NC(=O)c2cc(F)c(F)cc2Cl)[nH]n1 [Example 1-94]
4,21.6,CCC(CC)N(CCOC)C(=O)c1cc(NC(=O)c2cc(F)c(F)cc2Cl)[nH]n1 [Example 1-103]
5,32.3,CCCCN(C(=O)c1cc(NC(=O)c2cc(F)c(F)cc2Cl)[nH]n1)C1CCC(C(=O)OC(C)(C)C)CC1 (stereo not drawn) [Example 1-104]
6,45.3,COCCN(Cc1ccccc1)C(=O)c1cc(NC(=O)c2cc(F)c(F)cc2Cl)[nH]n1 [Example 1-108]
7,33.3,CCCCN(C(=O)c1cc(NC(=O)c2cc(F)c(F)cc2Cl)[nH]n1)C1CCNCC1 [Example 1-109]
8,49.9,CCCCN(C(=O)c1cc(NC(=O)c2cc(F)c(F)cc2Cl)[nH]n1)C1CCN(C(=O)C(=O)OCC)CC1 [Example 1-112]
9,38.9,CCCCN(C(=O)c1cc(NC(=O)c2cc(F)c(F)cc2Cl)[nH]n1)C1CCS(=O)(=O)CC1 [Example 1-114]
10,39.7,CCCCN(C(=O)c1cc(NC(=O)c2cc(F)c(F)cc2Cl)[nH]n1)C1CC[S+]([O-])CC1 (stereo not drawn) [Example 1-115]

# Same assay, conditions: enzyme inhibitory activity with respect to liver glycogen phosphorylase; class symbols
row,IC50 [nM],Structure (SMILES)
1,100 to 300,COCCNC(=O)c1cc(NC(=O)c2cc(F)c(F)cc2Cl)[nH]n1 [Example 1-106]
2,100 to 300,CCN(CC)C(=O)c1cccc(CNC(=O)c2cc(NC(=O)c3cc(F)c(F)cc3Cl)[nH]n2)c1 [Example 1-119]
3,< 100,CCNC(=O)c1ccc(CNC(=O)c2cc(NC(=O)c3cc(F)c(F)cc3Cl)[nH]n2)cc1 [Example 1-120]
4,< 100,CCNC(=O)c1cccc(CNC(=O)c2cc(NC(=O)c3cc(F)c(F)cc3Cl)[nH]n2)c1 [Example 1-121]
5,< 100,NC(=O)c1ccc(CNC(=O)c2cc(NC(=O)c3cc(F)c(F)cc3Cl)[nH]n2)cc1 [Example 1-122]
6,< 100,O=C(NCc1cnccn1)c1cc(NC(=O)c2cc(F)c(F)cc2Cl)[nH]n1 [Example 1-152]
7,< 100,O=C(NCc1ccc(Cl)s1)c1cc(NC(=O)c2cc(F)c(F)cc2Cl)[nH]n1 [Example 1-156]

# The remaining lines, values behind:
row,Structure (SMILES),IC50 [nM]
1,CCCCN(C(=O)c1cc(NC(=O)c2cc(F)c(F)cc2Cl)[nH]n1)C1CCCCC1 [Example 1-89],< 100
2,CCCCN(CCCC)C(=O)c1cc(NC(=O)c2cc(F)c(F)cc2Cl)[nH]n1 [Example 1-93],< 100
3,COCCN(C(=O)c1cc(NC(=O)c2cc(F)c(F)cc2Cl)[nH]n1)C1CCOCC1 [Example 1-97],< 100
4,CC(C)OCCN(C(=O)c1cc(NC(=O)c2cc(F)c(F)cc2Cl)[nH]n1)C1CCCCC1 [Example 1-101],< 100
5,CCOCCCN(C(=O)c1cc(NC(=O)c2cc(F)c(F)cc2Cl)[nH]n1)C1CCCCC1 [Example 1-102],< 100
6,CCCCN(C(=O)c1cc(NC(=O)c2cc(F)c(F)cc2Cl)[nH]n1)C1CCSCC1 [Example 1-105],100 to 300
7,CCCCN(C(=O)c1cc(NC(=O)c2cc(F)c(F)cc2Cl)[nH]n1)C1CCN(C(C)=O)CC1 [Example 1-110],< 100
8,CCCCN(C(=O)c1cc(NC(=O)c2cc(F)c(F)cc2Cl)[nH]n1)C1CCN(S(C)(=O)=O)CC1 [Example 1-111],100 to 300
9,CCN(CC)C(=O)c1ccc(CNC(=O)c2cc(NC(=O)c3cc(F)c(F)cc3Cl)[nH]n2)cc1 [Example 1-118],< 100
10,CCCN(C(=O)c1cc(NC(=O)c2cc(F)c(F)cc2Cl)[nH]n1)C1CCN(C(=O)CC(=O)O)CC1 [Example 1-124],< 100
11,CCCN(C(=O)c1cc(NC(=O)c2cc(F)c(F)cc2Cl)[nH]n1)C1CCN(C(=O)CCC(=O)O)CC1 [Example 1-125],< 100
12,O=C(O)CCN(Cc1ccccc1)C(=O)c1cc(NC(=O)c2cc(F)c(F)cc2Cl)[nH]n1 [Example 1-131],< 100
13,CCOC(=O)CCN(Cc1ccccc1)C(=O)c1cc(NC(=O)c2cc(F)c(F)cc2Cl)[nH]n1 [Example 1-132],< 100
14,O=C(NCc1ccc(-c2csnn2)cc1)c1cc(NC(=O)c2cc(F)c(F)cc2Cl)[nH]n1 [Example 1-142],< 100
15,O=C(NCc1ccc(N2CCSCC2)nc1)c1cc(NC(=O)c2cc(F)c(F)cc2Cl)[nH]n1 [Example 1-153],< 100
16,O=C(NCc1ccc(N2CCS(=O)(=O)CC2)nc1)c1cc(NC(=O)c2cc(F)c(F)cc2Cl)[nH]n1 [Example 1-154],< 100
17,O=C(NCc1cc(Br)c(Br)s1)c1cc(NC(=O)c2cc(F)c(F)cc2Cl)[nH]n1 [Example 1-155],< 100
18,CCc1nc(C)oc1CNC(=O)c1cc(NC(=O)c2cc(F)c(F)cc2Cl)[nH]n1 [Example 1-157],< 100
19,CCc1nc(C)c(CNC(=O)c2cc(NC(=O)c3cc(F)c(F)cc3Cl)[nH]n2)o1 [Example 1-158],< 100
20,O=C(NCc1ccc(-c2cccs2)s1)c1cc(NC(=O)c2cc(F)c(F)cc2Cl)[nH]n1 [Example 1-159],100 to 300
